Measured values: US12492173B2, “Herbicidal substituted N-tetrazolyl aryl carboxamides” (Bayer Aktiengesellschaft, priority 2019, dated 2025)

Legend:
Format in all cases: in vivo
[1] = system: Matricaria inodora; experiment: Post-emergence herbicidal action, MATIN; parameters: key: % herbicidal action vs untreated; 100 = plants died, 0 = like control
Procedure, shortened: (§1)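 Values are visual estimates of herbicidal action, from 0% (as untreated) to 100% (dead), made about 3 weeks after plants at one-leaf stage in sandy loam were sprayed with the formulated compound.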

[2] = system: Pharbitis purpurea; experiment: Pre-emergence herbicidal action, PHBPU; settings: dosage 320 g/ha, scored visually after 3 weeks vs untreated controls (100% = plants have died)
Procedure, shortened: (§2)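 Pre-emergence soil spray over sandy loam-covered seeds; greenhouse 3 weeks; % visual damage (0% = control, 100% = dead).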

[3] = system: Veronica persica; experiment: Pre-emergence herbicidal action, VERPE; parameters: key to Herbicidal action against VERPE: % activity: 100 = plants have died, 0 = like control plants; settings: for herbicidal activity VERPE: dosage 320 g/ha, scored visually after 3 weeks vs untreated controls (100% = plants have died); for Herbicidal action against VERPE: comparative experiment
Procedure, shortened: as §2

[4] = system: Alopecurus myosuroides; experiment: Post-emergence herbicidal action, ALOMY; parameters: key: % herbicidal action vs untreated; 100 = plants died, 0 = like control; settings: for Herbicidal action against ALOMY: comparative experiment
Procedure, shortened: as §1

[5] = system: Echinochloa crus-galli; experiment: Pre-emergence herbicidal action, ECHCG; parameters: key to Herbicidal action against ECHCG: % activity: 100 = plants have died, 0 = like control plants; settings: for herbicidal activity ECHCG: dosage 320 g/ha, scored visually after 3 weeks vs untreated controls (100% = plants have died); for Herbicidal action against ECHCG: comparative experiment
Procedure, shortened: as §2

[6] = system: Setaria viridis; experiment: Pre-emergence herbicidal action, SETVI; parameters: key to Herbicidal action against SETVI: % activity: 100 = plants have died, 0 = like control plants; settings: for herbicidal activity SETVI: dosage 320 g/ha, scored visually after 3 weeks vs untreated controls (100% = plants have died); for Herbicidal action against SETVI: comparative experiment
Procedure, shortened: as §2

Structure (SMILES) | herbicidal action MATIN ([1]; post-emergence, dosage 80 g/ha) | herbicidal activity PHBPU [2] | herbicidal activity VERPE [3] | herbicidal action ALOMY ([4]; post-emergence, dosage 80 g/ha) | herbicidal activity ECHCG [5] | herbicidal activity SETVI [6] | herbicidal action MATIN ([1]; Dosage 80 g/ha) | herbicidal action ALOMY ([4]; Dosage 80 g/ha) | Herbicidal action against ECHCG ([5]; 20 g of a.i./ha) | Herbicidal action against VERPE ([3]; 20 g of a.i./ha) | Herbicidal action against ALOMY ([4]; post-emergence, 5 g of a.i./ha) | Herbicidal action against SETVI ([6]; 20 g of a.i./ha) | Herbicidal action against VERPE ([3]; 80 g of a.i./ha) | Herbicidal action against ALOMY ([4]; post-emergence, 20 g of a.i./ha) | Herbicidal action against ECHCG ([5]; 80 g of a.i./ha) | Herbicidal action against SETVI ([6]; 80 g of a.i./ha)
COCCSCc1c(C(F)(F)F)ccc(C(=O)Nc2nnnn2C)c1Cl [Example 1-305] | 100% | 90% | 100% | 100% | 100% | 100% |  |  |  |  |  |  |  |  |  | 
Cn1nnnc1NC(=O)c1ccc(C(F)(F)F)c(CSCC(F)(F)F)c1Cl [Example 1-311] |  | 100% | 100% |  | 100% | 100% | 100 | 100 |  |  |  |  |  |  |  | 
Cn1nnnc1NC(=O)c1ccc(C(F)(F)F)c(CSCC2CC2)c1Cl [Example 1-314] | 100% | 90% | 100% | 100% | 100% | 100% |  |  |  |  |  |  |  |  |  | 
Cn1nnnc1NC(=O)c1ccc(C(F)(F)F)c(CS(=O)(=O)CC2CC2)c1Cl [Example 1-316] |  | 90% | 100% |  | 100% | 100% | 90 | 90 |  |  |  |  |  |  |  | 
CSCc1c(C(F)F)ccc(C(=O)Nc2nnnn2C)c1Cl [Example 1-320] |  | 80% | 100% |  | 100% | 100% |  | 100 | 100 |  |  |  |  |  |  | 
Cn1nnnc1NC(=O)c1ccc(C(F)F)c(CS(C)(=O)=O)c1Cl [Example 1-322] | 80% | 100% | 100% | 90% | 100% | 100% |  |  |  |  |  |  |  |  |  | 
CCSCc1c(C(F)F)ccc(C(=O)Nc2nnnn2C)c1Cl [Example 1-323] | 100% | 100% | 100% | 90% | 100% | 100% |  |  |  |  |  |  |  |  |  | 
CCS(=O)(=O)Cc1c(C(F)F)ccc(C(=O)Nc2nnnn2C)c1Cl [Example 1-325] |  | 100% | 100% |  | 100% | 100% | 80 | 90 |  |  |  |  |  |  |  | 
CSCc1c(I)ccc(C(=O)Nc2nnnn2C)c1Cl [Example 1-362] | 100% | 80% | 100% | 90% | 100% | 100% |  |  | 80 | 60 | 70 | 90 |  |  |  | 
Cn1nnnc1NC(=O)c1ccc(I)c(CS(C)(=O)=O)c1Cl [Example 1-364] |  | 90% | 100% |  | 100% | 100% | 100 | 90 | 90 | 100 |  | 100 |  |  |  | 
CCSCc1c(C(F)(F)F)ccc(C(=O)Nc2nnnn2C)c1Br [Example 1-383] | 90% | 80% | 100% | 100% | 100% | 100% |  |  |  |  |  |  | 100 | 80 | 100 | 100
CCn1nnnc1NC(=O)c1ccc(C(F)(F)F)c(C[S+](C)[O-])c1SC (stereo not shown) [Example 2-162] |  | 90% | 90% |  | 100% | 100% | 100 | 90 |  |  |  |  |  |  |  | 
CCn1nnnc1NC(=O)c1ccc(C(F)F)c(CSC)c1Cl [Example 2-320] |  | 80% | 100% |  | 100% | 100% |  | 100 |  |  |  |  |  |  |  | 
